Measurements published in patent US20070249717A1, “PREVENTIVE/THERAPEUTIC AGENT FOR VISCERAL PAIN” (AJINOMOTO CO. INC, priority 2004, published 2007).

Legend:
GABAB receptor = target: T1, GABAB receptor (Cavia porcellus, UniProt A0A286X9P6); assay: Action on GABAB receptor: electrically stimulated contraction of isolated guinea pig ileum; format: cell-based; details: for contraction (%): ileum contraction by electric stimulation calculated as 100%
T1 construct: The ileum was isolated from a guinea pig; from tissue; host or cells: isolated guinea pig ileum
Protocol: A test for GABAB receptor was performed according to the method reported by Kerr et al. (Kerr, D. I. B. Ong, J., Johnston, G. A. R. Abbenante, J. and Prager, R. H. (1988) 2-hydroxy-saclofen: an improved antagonist at central and peripheral GABAB receptors. Neurosci. Lett. 92: 92-96). The ileum was isolated from a guinea pig. […]
In Table 1, the ileum contraction by electric stimulation was calculated as 100%.

NK2 receptor = target: T2, NK2 receptor (Oryctolagus cuniculus, UniProt P79218); assay: Action on NK2 receptor: [βAla^8]NKA(4-10)-induced contraction of isolated rabbit pulmonary artery; format: cell-based
T2 construct: The pulmonary artery was isolated from a rabbit; from tissue; host or cells: isolated rabbit pulmonary artery
T2 sequence (P79218 1-384): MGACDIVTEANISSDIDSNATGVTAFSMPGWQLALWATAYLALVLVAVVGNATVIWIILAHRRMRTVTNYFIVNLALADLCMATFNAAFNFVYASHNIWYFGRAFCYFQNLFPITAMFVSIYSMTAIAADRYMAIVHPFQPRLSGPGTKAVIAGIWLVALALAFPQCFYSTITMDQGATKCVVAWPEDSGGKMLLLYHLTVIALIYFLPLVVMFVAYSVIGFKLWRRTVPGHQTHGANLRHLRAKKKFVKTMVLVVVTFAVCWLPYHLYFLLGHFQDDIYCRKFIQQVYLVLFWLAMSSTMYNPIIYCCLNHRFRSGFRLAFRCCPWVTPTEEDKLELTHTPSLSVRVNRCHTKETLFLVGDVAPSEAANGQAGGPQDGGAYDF
Protocol: A test for NK2 receptor was performed according to the method reported by Emonds et al. (Emonds-Alt X., Advenier, C., Croco, T. Manara, L., Neliat, G., Poncelet, M., Proietto, V., Santucci, V., Soubrie, P., Van Broeck, D., Vilain, P., Le Fur, G. and Breliere, J. C. (1993) SR 48968, a neurokinin A (NK2) receptor antagonist Regul. Peptides. 46: 31-36). The pulmonary artery was isolated from a rabbit. The isolated tissue was hung in a solution of buffer (NaCl 118.0, KCl 4.7, MgSO4 1-2, CaCl2 2.5, KH2PO41.2, NaHCO3 25, glucose 11.0 (pH 7 4) (unit:mM) 37° C.) aerated with oxygen (95% oxygen, 5% carbon dioxide), added with benexytramine (1 μM, a receptor antagonist), propranolol (1 μM, β receptor antagonist), pyrilamine (1 μM, histamine H1 receptor antagonist), atropine (1 μM, muscarinic receptor antagonist) and metiserglde (1 μM, 5-HT2 receptor antagonist). After 60 min or more, lysine (0.3, 3, 30 mM) was added to the buffer, and the contraction of the pulmonary artery due to [βAla^8]NKA(4-10) was measured.
In Table 2, the pulmonary artery contraction by [βAla^8]NKA(4-10) was calculated as 100%.

wrap stress rat model = details: in vivo; cited from earlier work
5-HT4 receptor = details: cited from earlier work
[1] = tested on: stress-induced colon distension rat model (visceral pain); assay: Visceral perceptual threshold in stress-induced colon distension visceral pain rat model; details: for visceral perceptual threshold that decreased due to the stress: stressed SD rat, from 10 min after administration, Dunnett's test

T1 sequence (A0A286X9P6 30-844): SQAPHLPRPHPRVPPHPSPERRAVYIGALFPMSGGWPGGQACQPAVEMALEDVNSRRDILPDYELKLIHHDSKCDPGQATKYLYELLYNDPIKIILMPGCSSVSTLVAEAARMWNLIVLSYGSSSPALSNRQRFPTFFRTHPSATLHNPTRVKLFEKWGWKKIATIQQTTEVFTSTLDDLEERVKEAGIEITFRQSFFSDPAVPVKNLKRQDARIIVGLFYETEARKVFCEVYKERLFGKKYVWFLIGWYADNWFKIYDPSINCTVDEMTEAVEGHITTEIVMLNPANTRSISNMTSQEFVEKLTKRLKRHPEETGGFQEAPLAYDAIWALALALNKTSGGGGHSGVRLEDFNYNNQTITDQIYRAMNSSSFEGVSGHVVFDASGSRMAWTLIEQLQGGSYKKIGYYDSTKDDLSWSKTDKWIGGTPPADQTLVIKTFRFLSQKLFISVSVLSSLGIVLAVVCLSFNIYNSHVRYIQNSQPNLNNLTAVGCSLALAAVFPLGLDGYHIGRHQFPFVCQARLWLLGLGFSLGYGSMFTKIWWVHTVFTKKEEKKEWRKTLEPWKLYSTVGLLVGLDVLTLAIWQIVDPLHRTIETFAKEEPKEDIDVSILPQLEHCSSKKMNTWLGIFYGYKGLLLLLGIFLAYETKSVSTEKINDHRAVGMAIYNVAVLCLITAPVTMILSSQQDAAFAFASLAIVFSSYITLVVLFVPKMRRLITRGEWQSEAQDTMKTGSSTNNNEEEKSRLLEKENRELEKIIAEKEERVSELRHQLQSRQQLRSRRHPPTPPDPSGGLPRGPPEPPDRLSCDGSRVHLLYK
T1 sequence (H0V741 1-820 partner): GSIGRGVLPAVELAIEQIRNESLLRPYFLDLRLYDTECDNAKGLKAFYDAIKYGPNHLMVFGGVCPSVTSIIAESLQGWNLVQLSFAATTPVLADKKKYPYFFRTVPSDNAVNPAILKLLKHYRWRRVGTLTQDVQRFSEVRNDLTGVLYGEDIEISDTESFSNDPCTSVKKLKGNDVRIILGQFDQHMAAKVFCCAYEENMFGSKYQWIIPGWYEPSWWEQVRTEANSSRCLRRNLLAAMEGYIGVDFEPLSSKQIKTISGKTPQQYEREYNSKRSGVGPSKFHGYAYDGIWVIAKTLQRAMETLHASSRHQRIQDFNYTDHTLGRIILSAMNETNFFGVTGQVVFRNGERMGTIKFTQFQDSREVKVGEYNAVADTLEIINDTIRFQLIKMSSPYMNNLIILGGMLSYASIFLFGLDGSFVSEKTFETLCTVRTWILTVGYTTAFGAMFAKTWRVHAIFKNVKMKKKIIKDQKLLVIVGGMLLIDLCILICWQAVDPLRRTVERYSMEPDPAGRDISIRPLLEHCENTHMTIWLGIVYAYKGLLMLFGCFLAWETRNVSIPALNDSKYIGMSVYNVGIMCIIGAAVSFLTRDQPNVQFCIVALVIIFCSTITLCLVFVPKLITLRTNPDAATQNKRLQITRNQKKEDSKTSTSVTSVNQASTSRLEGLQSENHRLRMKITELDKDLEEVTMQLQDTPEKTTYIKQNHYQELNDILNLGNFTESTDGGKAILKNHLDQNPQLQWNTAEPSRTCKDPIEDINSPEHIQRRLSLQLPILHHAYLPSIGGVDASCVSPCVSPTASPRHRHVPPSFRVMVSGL

Compound | contraction (%) (GABAB receptor; 0.3 mM) | contraction (%) (GABAB receptor; 3.0 mM) | contraction (%) (GABAB receptor; 30 mM) | ileum contraction via GABAB receptor (GABAB receptor; 0.3-30, isolated guinea pig ileum) | contraction (%) (NK2 receptor; 0.3 mM, contraction by [βAla^8]NKA(4-10) calculated as 100%) | contraction (%) (NK2 receptor; 3.0 mM, contraction by [βAla^8]NKA(4-10) calculated as 100%) | contraction (%) (NK2 receptor; 30 mM, contraction by [βAla^8]NKA(4-10) calculated as 100%) | pulmonary artery contraction via NK2 receptor (NK2 receptor; 0.3-30 mM, isolated rabbit pulmonary artery) | effect on wrap stress rat model (wrap stress rat model) | action at 5-HT4 receptor (5-HT4 receptor) | time for which significant increase of visceral perceptual threshold was observed ([1]; 1 g/kg or 3 g/kg orally) | visceral perceptual threshold that decreased due to the stress ([1]; 1 g/kg orally) | visceral perceptual threshold that decreased due to the stress ([1]; 3 g/kg orally) | contraction (%) (NK2 receptor; 3 × 10^−4 mM, agonist alone, reference set as 100%)
NCCCC[C@H](N)C(=O)O [lysine] | 0% | −20% | −77% | suppressed the ileum contraction via GABAB receptor, in a dose-dependent manner | 85% | 41% | 19% | suppressed the pulmonary artery contraction via NK2 receptor, in a dose-dependent manner | treatment effect | 5-HT4 receptor antagonist | about 2 hr | significantly increased | significantly increased | –
[βAla^8]NKA(4-10) [reference compound] | – | – | – | – | – | – | – | – | – | – | – | – | – | 100%
